According to US20250109140A1, “5-[5-(PIPERIDIN-4-YL)THIENO[3,2-C]PYRAZOL-2-YL]INDAZOLE DERIVATIVES AND RELATED COMPOUNDS AS MODULATORS FOR SPLICING NUCLEIC ACIDS AND FOR THE TREATMENT OF PROLIFERATIVE DISEASES” (REMIX THERAPUTICS INC., priority 2022, published 2025):
Like-named read-outs stand apart in the source and are kept apart here.

How the values were obtained:
Format in all cases: cell-based
MYB mRNA = assay: Splicing RT-qPCR assay, MYB canonical (CJ) and alternative (AJ) junction mRNA; conditions: Homo sapiens; for EC50: AC50 = 50% response in AJ mRNA increase
Protocol: (§1) Compounds described herein were used to modulate RNA transcript abundance in cells. The expression of a target mRNA was measured by detecting the formation of an exon-exon junction in the canonical transcript (CJ). A compound mediated exon-inclusion event was detected by observing an increase in formation of a new junction with an alternative exon (AJ). Real-time qPCR assays were used to detect these splicing switches and interrogate the potency of various compounds towards different target genes. A high-throughput real time quantitative PCR (RT-qPCR) assay was developed to measure these two isoforms of the mRNA (CJ and AJ) for exemplary genes, such as HTT, SMN2, and MYB, together with a control housekeeping gene, GAPDH or GUSB or PPIA, used for normalization. Briefly, the A673 or K562 cell line was treated with various compounds described herein (e.g., compounds of Formula (I)). After treatment, the levels of the HTT, MYB, or SMN2 mRNA targets were determined from each sample of cell lysate by cDNA synthesis followed by qPCR.
(§2) The A673 cell line was cultured in DMEM with 10% FBS. Cells were diluted with full growth media and plated in a 96-well plate (15,000 cells in 100 ul media per well). The plate was incubated at 37° C. with 5% CO2 for 24 hours to allow cells to adhere. An 11-point 3-fold serial dilution of the compounds was made in DMSO then diluted in media in an intermediate plate. Compounds were transferred from the intermediate plate to the cell plate with the top dose at a final concentration of 10 uM in the well. Final DMSO concentration was kept at or below 0.25%. The cell plate was returned to the incubator at 37° C. with 5% CO2 for an additional 24 hours.
(§3) The K562 cell line was cultured in IMDM with 10% FBS. For K562, cells were diluted with full growth media and plated in either a 96-well plate (50,000 cells in 50 uL media per well) or a 384-well plate (8,000-40,000 cells in 45 uL media per well). An 11-point 3-fold serial dilution of the compounds were made in DMSO then diluted in media in an intermediate plate. Compound was transferred from the intermediate plate to the cell plate with the top dose at a final concentration of 10 uM in the well. Final DMSO concentration was kept at or below 0.25%. Final volume was 100 uL for 96-well plate and 50 uL for 384-well plate. The cell plate was then placed in an incubator at 37° C. with 5% CO2 for 24 hours.
(§4) The cells were then gently washed with 50 uL-100 uL cold PBS before proceeding to addition of lysis buffer. 30 uL-50 uL of room temperature lysis buffer with DNAse I (and optionally RNAsin) was added to each well. Cells were shaken/mixed thoroughly at room temperature for 5-10 minutes for lysis to take place and then 3 uL-5 uL of room temperature stop solution was added and wells were shaken/mixed again. After 2-5 minutes, the cell lysate plate was transferred to ice for RT-qPCR reaction setup. The lysates could also be frozen at-80° C. for later use.
(§5) In some cases, a direct lysis buffer was used. An appropriate volume of 3× lysis buffer (10 mM Tris, 150 mM NaCl, 1.5%-2.5% Igepal and 0.1-1 U/uL RNAsin, pH 7.4) was directly added to either K562 or A673 cells in media and mixed by pipetting 3 times. The plates were then incubated at room temperature with shaking/rocking for 20-50 minutes to allow for lysis to take place. After this time, the cell lysate plate was transferred to ice to set up for the RT-qPCR reactions. The lysates could also be frozen at −80° C. for later use.
(§6) To set up 10 uL RT-qPCR reactions, cell lysates were transferred to 384-well qPCR plates containing the master mix according to the table below. The plates were sealed, gently vortexed, and spun down before the run. The volumes were adjusted accordingly in some instances where the reaction was carried in 20 μL. The table below summarizes the components of the RT-qPCR reactions:
(§7) The RT-qPCR reaction was performed using a QuantStudio (ThermoFisher) under the following fast cycling conditions. […]

HTT mRNA = assay: Splicing RT-qPCR assay, HTT canonical (CJ) and alternative (AJ) junction mRNA; conditions: Homo sapiens; for EC50: AC50 = 50% response in AJ mRNA increase
Protocol: as §1, §2, §3, §4, §5, §6, §7

SMN2 mRNA = assay: Splicing RT-qPCR gene panel, SMN2 canonical junction (CJ) mRNA; conditions: Homo sapiens; Table 8; larger gene panel, decrease in CJ mRNA levels
Protocol: as §1, §2, §3, §4, §5, §6, §7

Target C mRNA = assay: Splicing RT-qPCR gene panel, Target C canonical junction (CJ) mRNA; conditions: Homo sapiens; Table 8; larger gene panel, decrease in CJ mRNA levels
Protocol: as §1, §2, §3, §4, §5, §6, §7

[1] = Table 7, RT-qPCR, A673 or K562 cells, 24 hours treatment
[2] = Table 7, IC50 = 50% response in CJ mRNA decrease, RT-qPCR, A673 or K562 cells, 24 hours treatment, read-out: MYB CJ
[3] = Table 8, larger gene panel, decrease in CJ mRNA levels, read-out: MYB CJ IC50
[4] = Table 7, IC50 = 50% response in CJ mRNA decrease, RT-qPCR, A673 or K562 cells, 24 hours treatment, read-out: HTT CJ
[5] = Table 8, larger gene panel, decrease in CJ mRNA levels, read-out: HTT CJ IC50

Structure (SMILES)	EC50 (MYB mRNA; [1])	IC50 (MYB mRNA; [2])	IC50 (MYB mRNA; [3])	EC50 (HTT mRNA; [1])	IC50 (HTT mRNA; [4])	IC50 (HTT mRNA; [5])	IC50 (SMN2 mRNA)	IC50 (Target C mRNA)
Cn1cc2cc(-c3nc4sc(N5CCC56CCNCC6)cc4s3)cc(F)c2n1 [Compound 201, 1-[2-(7-fluoro-2-methylindazol-5-yl)thieno[2,3-d][1,3]thiazol-5-yl]-1,7-diazaspiro[3.5]nonane]	> 10 µM	> 10 µM	> 10 µM	> 10 µM	> 10 µM	> 10 µM	> 10000 nM	> 10 µM
Cn1cc2cc(-c3nc4sc(N5CCC56CCCNC6)cc4s3)cc(F)c2n1 (stereo not shown) [Compound 202, 1-[2-(7-fluoro-2-methylindazol-5-yl)thieno[2,3-d][1,3]thiazol-5-yl]-1,6-diazaspiro[3.5]nonane]	> 10 µM	> 10 µM	> 10 µM	> 10 µM	> 10 µM	> 10 µM	1000 to 10000 nM	1 to 10 µM
CN1CCCC2(CCN2c2cc3sc(-c4cc(F)c5nn(C)cc5c4)nc3s2)C1 (stereo not shown) [Compound 203, 1-[2-(7-fluoro-2-methylindazol-5-yl)thieno[2,3-d][1,3]thiazol-5-yl]-6-methyl-1,6-diazaspiro[3.5]nonane]	> 10 µM	> 10 µM	> 10 µM	> 10 µM	> 10 µM	> 10 µM	1000 to 10000 nM	> 10 µM
CN1CCC2(CC1)CCN2c1cc2sc(-c3cc(F)c4nn(C)cc4c3)nc2s1 [Compound 204, 1-[2-(7-fluoro-2-methylindazol-5-yl)thieno[2,3-d][1,3]thiazol-5-yl]-7-methyl-1,7-diazaspiro [3.5]nonane]	1 to 10 µM	1 to 10 µM	1 to 10 µM	1 to 10 µM	1 to 10 µM	1 to 10 µM	1000 to 10000 nM	1 to 10 µM
Cn1cc2c(O)c(-c3nc4sc(C5CCNCC5)cc4s3)ccc2n1 [Compound 231, 2-methyl-5-[5-(piperidin-4-yl)thieno[2,3-d][1,3]thiazol-2-yl]indazol-4-ol]	1 to 10 µM	> 10 µM	1 to 10 µM	1 to 10 µM	1 to 10 µM	1 to 10 µM	100 to 1000 nM	> 10 µM
Cn1cc2cc(-c3nc4sc(N5CCC6(CCN6)C5)cc4s3)cc(F)c2n1 (stereo not shown) [Compound 233, 5-(5-{1,6-diazaspiro[3.4]octan-6-yl}thieno[2,3-d][1,3]thiazol-2-yl)-7-fluoro-2-methylindazole]	1 to 10 µM	1 to 10 µM	1 to 10 µM	1 to 10 µM	1 to 10 µM	1 to 10 µM	< 100 nM	> 10 µM
Cc1cn2nc(-c3nc4sc(C5CNC5)cc4s3)cc(C)c2n1 [Compound 235, 3-(2-{2,8-dimethylimidazo[1,2-b]pyridazin-6-yl}thieno[2,3-d][1,3]thiazol-5-yl) azetidine]	1 to 10 µM	1 to 10 µM	1 to 10 µM	1 to 10 µM	1 to 10 µM	1 to 10 µM	100 to 1000 nM	1 to 10 µM
Cn1cc2cc(-c3nc4sc(C5(O)CCNCC5)cc4s3)cc(F)c2n1 [Compound 236, 4-[2-(7-fluoro-2-methylindazol-5-yl)thieno[2,3-d][1,3]thiazol-5-yl]piperidin-4-ol]	1 to 10 µM	0.1 to 1 µM	1 to 10 µM	1 to 10 µM	0.1 to 1 µM	1 to 10 µM	100 to 1000 nM	1 to 10 µM
